From ChEMBL document CHEMBL3132769, “Fragment growing to retain or alter the selectivity of anchored kinase hinge-binding fragments” (Medchemcomm, 2014)

Columns and labels:
[1] = test system: Tyrosine-protein kinase ABL1 (Homo sapiens), P00519 [T315I]; assay: Inhibition of human truncated ABL T315I mutant expressed in baculovirus assessed as substrate phosphorylation using fluorescence-labelled peptides as substrate at 0.2 uM after 90 mins by microfluidic peptide phosphorylation assay
[2] = molecular target: Aurora kinase B (Homo sapiens) (UniProt Q96GD4); assay: Inhibition of human full length AurB expressed in baculovirus assessed as substrate phosphorylation using fluorescence-labelled peptides as substrate at 2 uM after 90 mins by microfluidic peptide phosphorylation assay
Aurora kinase B (Homo sapiens), sequence (Q96GD4 whole entry, the tested form may be a part): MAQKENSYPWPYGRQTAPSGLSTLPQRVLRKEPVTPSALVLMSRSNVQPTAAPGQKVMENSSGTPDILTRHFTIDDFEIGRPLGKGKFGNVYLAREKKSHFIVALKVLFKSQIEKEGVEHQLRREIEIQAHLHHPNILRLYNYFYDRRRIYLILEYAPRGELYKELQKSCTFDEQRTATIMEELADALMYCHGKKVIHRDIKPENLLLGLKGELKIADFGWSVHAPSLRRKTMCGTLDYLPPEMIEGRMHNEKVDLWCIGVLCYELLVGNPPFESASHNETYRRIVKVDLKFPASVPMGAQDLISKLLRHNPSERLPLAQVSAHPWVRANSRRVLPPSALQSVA

[3] = molecular target: Serine/threonine-protein kinase PAK 2 (Homo sapiens) (UniProt Q13177); assay: Inhibition of human truncated PAK2 expressed in Escherichia coli cell assessed as substrate phosphorylation using fluorescence-labelled peptides as substrate at 2 uM after 90 mins by microfluidic peptide phosphorylation assay
Serine/threonine-protein kinase PAK 2 (Homo sapiens), sequence (Q13177 whole entry, the tested form may be a part): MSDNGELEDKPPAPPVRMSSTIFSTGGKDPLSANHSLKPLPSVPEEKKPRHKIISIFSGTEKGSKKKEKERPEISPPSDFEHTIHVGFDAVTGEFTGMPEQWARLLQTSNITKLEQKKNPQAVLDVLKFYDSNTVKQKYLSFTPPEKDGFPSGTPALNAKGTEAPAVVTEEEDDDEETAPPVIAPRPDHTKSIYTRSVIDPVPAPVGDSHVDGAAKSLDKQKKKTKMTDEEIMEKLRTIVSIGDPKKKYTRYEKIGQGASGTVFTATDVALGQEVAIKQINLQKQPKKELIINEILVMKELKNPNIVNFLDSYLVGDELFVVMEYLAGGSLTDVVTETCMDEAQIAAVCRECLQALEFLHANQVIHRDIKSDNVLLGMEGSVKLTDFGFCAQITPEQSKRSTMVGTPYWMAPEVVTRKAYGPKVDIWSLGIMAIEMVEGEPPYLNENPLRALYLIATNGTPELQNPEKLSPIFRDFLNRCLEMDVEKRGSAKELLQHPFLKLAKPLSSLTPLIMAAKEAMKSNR

[4] = molecular target: T1, Serine/threonine-protein kinase Sgk1 (Homo sapiens) (UniProt O00141); assay: Inhibition of human truncated SGK1 expressed in baculovirus assessed as substrate phosphorylation using fluorescence-labelled peptides as substrate at 2 uM after 90 mins by microfluidic peptide phosphorylation assay
T1 sequence (whole entry): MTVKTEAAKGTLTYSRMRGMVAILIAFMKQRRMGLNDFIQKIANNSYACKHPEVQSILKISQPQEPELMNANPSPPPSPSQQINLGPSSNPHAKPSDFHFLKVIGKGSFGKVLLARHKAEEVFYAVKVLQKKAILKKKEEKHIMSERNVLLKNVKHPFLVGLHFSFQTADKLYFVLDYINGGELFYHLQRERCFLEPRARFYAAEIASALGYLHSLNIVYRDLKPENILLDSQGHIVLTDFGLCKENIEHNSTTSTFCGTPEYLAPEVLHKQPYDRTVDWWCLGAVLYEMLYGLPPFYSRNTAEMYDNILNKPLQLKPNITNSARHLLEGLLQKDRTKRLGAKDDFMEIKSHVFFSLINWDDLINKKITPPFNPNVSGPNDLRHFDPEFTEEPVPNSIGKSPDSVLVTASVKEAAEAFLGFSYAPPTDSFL

[5] = test system: Tyrosine-protein kinase ABL1 (Homo sapiens), P00519 [Q252H]; assay: Inhibition of human truncated ABL Q252H mutant expressed in baculovirus assessed as substrate phosphorylation using fluorescence-labelled peptides as substrate at 1000 uM after 90 mins by microfluidic peptide phosphorylation assay
[6] = molecular target: T2, Calcium/calmodulin-dependent protein kinase type IV (Homo sapiens) (UniProt Q16566); assay: Inhibition of human full length CAMK4 expressed in baculovirus assessed as substrate phosphorylation using fluorescence-labelled peptides as substrate at 0.06 uM after 90 mins by microfluidic peptide phosphorylation assay
T2 sequence (whole entry): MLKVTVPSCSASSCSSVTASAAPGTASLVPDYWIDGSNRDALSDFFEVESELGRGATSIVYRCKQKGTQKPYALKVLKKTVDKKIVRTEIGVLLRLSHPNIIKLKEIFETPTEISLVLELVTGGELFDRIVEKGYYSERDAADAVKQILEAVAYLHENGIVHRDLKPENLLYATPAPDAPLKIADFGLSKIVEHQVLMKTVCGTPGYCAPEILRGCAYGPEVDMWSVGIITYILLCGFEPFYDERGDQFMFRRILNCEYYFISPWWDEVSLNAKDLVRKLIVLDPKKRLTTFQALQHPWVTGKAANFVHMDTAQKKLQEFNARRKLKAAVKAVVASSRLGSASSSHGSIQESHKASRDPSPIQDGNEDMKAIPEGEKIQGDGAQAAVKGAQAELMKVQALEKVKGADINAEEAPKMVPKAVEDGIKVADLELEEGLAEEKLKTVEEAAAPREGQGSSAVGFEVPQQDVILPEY

[7] = species on record: Homo sapiens; assay: Inhibition of human P70S6K catalytic domain expressed in baculovirus assessed as substrate phosphorylation using fluorescence-labelled peptides as substrate at 0.06 uM after 90 mins by microfluidic peptide phosphorylation assay
[8] = molecular target: T3, Testis-specific serine/threonine-protein kinase 1 (Homo sapiens) (UniProt Q9BXA7); assay: Inhibition of human full length TSSK1 expressed in baculovirus assessed as substrate phosphorylation using fluorescence-labelled peptides as substrate at 0.06 uM after 90 mins by microfluidic peptide phosphorylation assay
T3 sequence (whole entry): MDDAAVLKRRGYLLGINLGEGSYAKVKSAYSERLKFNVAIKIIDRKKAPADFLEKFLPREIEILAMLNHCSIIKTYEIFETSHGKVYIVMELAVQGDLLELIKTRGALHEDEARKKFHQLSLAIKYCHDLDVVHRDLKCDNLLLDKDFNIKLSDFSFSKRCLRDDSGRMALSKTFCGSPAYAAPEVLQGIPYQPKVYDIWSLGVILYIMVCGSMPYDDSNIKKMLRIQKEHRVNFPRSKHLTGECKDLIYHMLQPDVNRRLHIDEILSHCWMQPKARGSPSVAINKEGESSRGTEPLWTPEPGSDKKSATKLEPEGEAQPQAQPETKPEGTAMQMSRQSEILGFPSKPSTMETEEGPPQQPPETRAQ

[9] = molecular target: Ribosomal protein S6 kinase alpha-1 (Homo sapiens) (UniProt Q15418); assay: Inhibition of human full length RSK1 expressed in baculovirus assessed as substrate phosphorylation using fluorescence-labelled peptides as substrate at […] after 90 mins by microfluidic peptide phosphorylation assay
Ribosomal protein S6 kinase alpha-1 (Homo sapiens), sequence (Q15418 whole entry, the tested form may be a part): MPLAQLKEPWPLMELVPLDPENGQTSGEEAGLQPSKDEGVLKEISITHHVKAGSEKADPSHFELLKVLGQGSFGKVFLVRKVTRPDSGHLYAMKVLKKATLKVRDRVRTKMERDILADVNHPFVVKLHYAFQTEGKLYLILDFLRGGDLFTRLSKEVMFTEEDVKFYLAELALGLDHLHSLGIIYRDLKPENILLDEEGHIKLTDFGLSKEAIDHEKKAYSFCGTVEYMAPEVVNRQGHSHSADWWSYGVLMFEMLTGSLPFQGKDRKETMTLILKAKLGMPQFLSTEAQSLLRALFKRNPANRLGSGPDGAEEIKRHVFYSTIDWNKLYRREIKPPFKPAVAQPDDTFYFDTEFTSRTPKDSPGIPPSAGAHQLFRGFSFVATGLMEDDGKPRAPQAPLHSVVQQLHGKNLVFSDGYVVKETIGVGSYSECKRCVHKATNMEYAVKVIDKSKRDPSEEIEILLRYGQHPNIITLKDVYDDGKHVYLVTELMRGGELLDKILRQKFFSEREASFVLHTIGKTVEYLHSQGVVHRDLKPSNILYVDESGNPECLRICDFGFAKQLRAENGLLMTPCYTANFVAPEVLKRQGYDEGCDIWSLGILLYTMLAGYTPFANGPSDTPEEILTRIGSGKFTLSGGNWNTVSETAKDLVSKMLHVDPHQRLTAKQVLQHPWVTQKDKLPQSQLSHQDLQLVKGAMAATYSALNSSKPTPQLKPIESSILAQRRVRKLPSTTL

[10] = molecular target: Protein kinase C delta type (Homo sapiens) (UniProt Q05655); assay: Inhibition of human truncated PKC delta expressed in baculovirus assessed as substrate phosphorylation using fluorescence-labelled peptides as substrate at 420 uM after 90 mins by microfluidic peptide phosphorylation assay
Protein kinase C delta type (Homo sapiens), sequence (Q05655 whole entry, looked up, the tested form may be a part): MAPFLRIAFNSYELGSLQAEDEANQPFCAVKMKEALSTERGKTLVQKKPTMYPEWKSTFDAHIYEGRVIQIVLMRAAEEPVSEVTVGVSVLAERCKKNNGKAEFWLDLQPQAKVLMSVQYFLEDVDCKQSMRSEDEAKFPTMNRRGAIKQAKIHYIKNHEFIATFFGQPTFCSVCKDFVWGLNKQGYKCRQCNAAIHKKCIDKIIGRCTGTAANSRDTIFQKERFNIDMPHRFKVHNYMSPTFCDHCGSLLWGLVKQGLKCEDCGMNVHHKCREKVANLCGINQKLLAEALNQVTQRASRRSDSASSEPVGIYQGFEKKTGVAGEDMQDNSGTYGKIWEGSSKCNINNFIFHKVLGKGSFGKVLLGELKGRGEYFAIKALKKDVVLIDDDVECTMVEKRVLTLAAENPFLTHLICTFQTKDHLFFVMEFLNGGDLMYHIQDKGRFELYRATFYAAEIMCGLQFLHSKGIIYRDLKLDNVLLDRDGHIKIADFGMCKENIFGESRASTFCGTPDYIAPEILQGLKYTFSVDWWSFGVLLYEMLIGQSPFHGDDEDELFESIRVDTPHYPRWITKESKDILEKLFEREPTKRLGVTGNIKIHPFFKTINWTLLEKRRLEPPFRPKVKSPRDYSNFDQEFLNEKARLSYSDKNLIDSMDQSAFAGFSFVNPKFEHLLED

[11] = species on record: Homo sapiens; assay: Inhibition of human full length PKA expressed in baculovirus assessed as substrate phosphorylation using fluorescence-labelled peptides as substrate at 9 uM after 90 mins by microfluidic peptide phosphorylation assay
[12] = molecular target: T4, Interleukin-1 receptor-associated kinase 4 (Homo sapiens) (UniProt Q9NWZ3); assay: Inhibition of human IRAK4 catalytic domain expressed in baculovirus assessed as substrate phosphorylation using fluorescence-labelled peptides as substrate at 70 uM after 90 mins by microfluidic peptide phosphorylation assay
T4 sequence (whole entry): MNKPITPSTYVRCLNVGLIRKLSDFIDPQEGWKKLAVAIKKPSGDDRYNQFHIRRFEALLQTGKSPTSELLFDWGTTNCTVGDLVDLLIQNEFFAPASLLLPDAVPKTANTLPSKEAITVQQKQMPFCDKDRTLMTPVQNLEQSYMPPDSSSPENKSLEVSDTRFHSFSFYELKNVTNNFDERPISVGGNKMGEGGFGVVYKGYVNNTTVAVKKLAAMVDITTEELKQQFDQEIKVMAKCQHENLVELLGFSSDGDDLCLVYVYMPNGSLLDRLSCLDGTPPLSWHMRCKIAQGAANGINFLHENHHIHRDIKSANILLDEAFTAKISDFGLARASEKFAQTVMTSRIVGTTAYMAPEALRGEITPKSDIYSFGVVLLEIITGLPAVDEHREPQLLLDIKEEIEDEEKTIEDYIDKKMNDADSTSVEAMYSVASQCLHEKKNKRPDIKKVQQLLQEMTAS

[13] = molecular target: Platelet-derived growth factor receptor alpha (Homo sapiens) (UniProt P16234); assay: Inhibition of human PDGFR alpha catalytic domain expressed in baculovirus assessed as substrate phosphorylation using fluorescence-labelled peptides as substrate at 70 uM after 90 mins by microfluidic peptide phosphorylation assay
Platelet-derived growth factor receptor alpha (Homo sapiens), sequence (P16234 whole entry, the tested form may be a part): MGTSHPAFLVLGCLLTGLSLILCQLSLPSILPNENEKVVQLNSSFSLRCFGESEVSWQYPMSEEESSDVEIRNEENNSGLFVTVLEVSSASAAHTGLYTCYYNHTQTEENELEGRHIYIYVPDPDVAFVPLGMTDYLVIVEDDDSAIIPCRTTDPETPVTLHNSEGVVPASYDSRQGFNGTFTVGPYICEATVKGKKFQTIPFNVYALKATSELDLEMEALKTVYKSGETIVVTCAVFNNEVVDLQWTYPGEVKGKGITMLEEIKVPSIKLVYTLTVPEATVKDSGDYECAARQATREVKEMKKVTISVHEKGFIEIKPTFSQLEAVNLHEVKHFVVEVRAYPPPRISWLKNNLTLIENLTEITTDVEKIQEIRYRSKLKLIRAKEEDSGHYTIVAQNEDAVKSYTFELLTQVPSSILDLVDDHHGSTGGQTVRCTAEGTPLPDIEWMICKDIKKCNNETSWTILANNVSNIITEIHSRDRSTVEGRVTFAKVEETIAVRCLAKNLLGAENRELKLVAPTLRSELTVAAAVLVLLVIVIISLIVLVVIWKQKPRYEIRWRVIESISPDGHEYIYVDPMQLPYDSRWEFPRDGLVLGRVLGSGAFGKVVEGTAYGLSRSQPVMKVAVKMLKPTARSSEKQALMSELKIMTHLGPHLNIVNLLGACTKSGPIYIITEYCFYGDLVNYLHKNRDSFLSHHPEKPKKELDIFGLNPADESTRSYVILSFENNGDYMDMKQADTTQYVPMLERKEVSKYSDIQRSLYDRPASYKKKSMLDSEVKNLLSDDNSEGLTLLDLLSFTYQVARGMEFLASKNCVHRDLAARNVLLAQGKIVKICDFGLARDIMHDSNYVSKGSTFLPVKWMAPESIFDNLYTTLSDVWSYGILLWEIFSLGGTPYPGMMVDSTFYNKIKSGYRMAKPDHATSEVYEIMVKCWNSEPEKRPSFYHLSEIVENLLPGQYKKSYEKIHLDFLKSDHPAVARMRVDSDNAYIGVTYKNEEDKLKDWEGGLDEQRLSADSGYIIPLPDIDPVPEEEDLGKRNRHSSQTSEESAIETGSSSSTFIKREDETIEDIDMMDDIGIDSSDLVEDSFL

SMILES: Clc1ccc(C2(c3ccc(-c4ncnc5[nH]cnc45)cc3)CCNCC2)cc1
- inhibition [1]: 0%

SMILES: NC1CCN(c2ncnc3[nH]ccc23)CC1
- inhibition [2]: 34%
- inhibition [3]: 3.5%
- inhibition [4]: 27%

SMILES: c1cnc2[nH]ccc2c1
- inhibition [5]: 29%

SMILES: NC1(Cc2ccc(Cl)cc2)CCN(c2ncnc3[nH]ccc23)CC1
- inhibition [6]: 6%
- inhibition [7]: 0%
- inhibition [8]: 0%

SMILES: COC(=O)c1cnc(Nc2cnc(C#N)cn2)cc1NCC1CCNCC1
- inhibition [9]: 37%

SMILES: c1nc(N2CCOCC2)c2nc[nH]c2n1
- inhibition [10]: 78.5%

SMILES: NCC1CN(c2ncnc3[nH]c4cnccc4c23)CCO1 (stereo not drawn)
- inhibition [11]: 33.5%

SMILES: CNCc1ccc(-c2ncnc3[nH]cnc23)cc1
- inhibition [12]: 15%
- inhibition [13]: 16.5%
